Consider six compounds from patent publication US20110064789A1, “DOCOSAHEXANOIC ACID AS INHIBITOR OF H. PYLORI” (priority 2009, published 2011).

The test system of series [1] is H. pylori. The following applies: cited from earlier work.
For series [2], the system named is H. pylori strains 26695 (ATCC 700392), SS1 and B128. Kind of series: In vitro incubation of H. pylori broth cultures with DHA added at time 0 (growth, viable CFU). The following applies: DHA 250 μM. The class given is cell-based, Helicobacter pylori.
The test system of series [3] is H. pylori strains 26695, SS1 and B128. Nature of the series: In vitro addition of DHA to a 12 hours H. pylori culture (bactericidal/bacteriostatic effect, CFU). As to conditions: versus prior art doses. The class given is cell-based, Helicobacter pylori. As for the experimental part: Stock solutions of DHA were diluted at desired concentrations (from 10 μM to 1000 μM) in Brucella broth (BB) enriched with 10% FBS. […] Each experiment consisting of a control (bacterial medium) and bacteria incubated with DHA at 10 μ[…] and 1000 μM was performed in triplicate. DHA was added at the time 0 of the experiments or after 12 hours. H. pylori broth cultures were incubated microaerophilically, at 37° C. for 48 hours. Every 6 hours, the OD 600 nm of the cultures was measured and 200 μL samples were diluted and plated on blood agar plates for the numeration of viable bacteria (colony-forming-units (CFU)) after 48 hours of incubation at 37° C. The question as to whether DHA has a bactericidal effect was answered by conducting an experiment where DHA was added to a 12 hours H. pylori culture. FIG. 2 represents the viability of the three strains of H. pylori used. Addition of DHA after 12 hours of H. pylori growth led to a decrease of the ability to form CFU in a dose dependent manner.

Another series relates to H. pylori strain SS1. Kind of series: Mouse model for H. pylori gastric colonization, DHA in drinking water. The format is in vivo. The following applies: for stomach colonization / mice in which colonization by H. pylori occurred / inhibition of H. pylori growth (gastric colonization): DHA 50 μM in drinking water. From the text:
Five-weeks-old specific pathogen-free C57BU6 male mice have been purchased from Charles River Laboratories (France). Animals were housed in microisolators in polycarbonate cages. Food has been supplied ad libitum. Standard diet was purchased from SAFE (Epinay/Orge, France). Animals were acclimatized for one week before inoculation. The experiments reported in the study were approved in advanced by the Central Animal Facility Committee of Institut Pasteur, in conformity with the French Ministry of Agriculture Guidelines for Animal Care.
H. pylori strain SS1 was grown on blood agar plates, harvested after 24 h and suspended in peptone broth. Twenty four mice (n=24) were orogastrically inoculated 100 μL of a suspension of 10^8 CFU/mL of H. pylori strain SS1, whereas non-infected groups of mice (n=24) were given 100 μL of peptone broth. Mice were sacrificed 1 or 3 months after infection. For each time point, the experiments consisted in 4 groups of mice, 2 groups received drinking water and for the two other groups, drinking water was supplemented with DHA at a final concentration of 50 μM. Dose of 50 μM corresponds more precisely to a quantity of 0.068 mg of DHA received by each mouse each day. Each two groups consisted of one uninfected-group (n=6) and one H. pylori strain SS1 infected-group (n=6). Stomachs were isolated from each mouse and used to measure H. pylori colonization as previously described by Ferrero et al.^51
C57BL/6 mice were therefore infected with SS1 strain and start on DHA treatment for the whole period of the experiment, which was given in their drinking water in a concentration of 50 μM. Mice were sacrificed at one, three, six or nine months of infection.

A further series has as its system H. pylori SS1 strain. Nature of the series: Efficiency of DHA versus standard therapy in H. pylori eradication in mice. The class given is in vivo, C57BL/6 mice. The following applies: mice infected one month; DHA 15 days, standard therapy 7 days. The text has this:
C57BU6 mice have been infected with H. pylori SS1 strain for one month and proceed to treatment with DHA for 15 days or/and standard therapy for 7 days, as described elsewhere by Lee et al.^52 and van Zanten et al.^53. According to the standard therapy, mice received omeprazole (400 μmol/kg/day), metronidazole (14.2 μmol/kg/day) and clarithromycin (7.15 μmol/kg/day)^53.

The subject of series [4] is H. pylori. The following applies: in vitro assay of Thompson et al.; cited from earlier work.

With `CCC(C(=O)O)c1ccccc1` (stereo not shown) [2-phenylbutyrate], in the series with H. pylori [1], the “effect on growth of H. pylori” value was “ability to inhibit the growth of H. pylori”.
Turning to `O=C(O)CCCc1ccccc1` [4-phenylbutyrate], in the series with H. pylori [1], the “effect on growth of H. pylori” value is “ability to inhibit the growth of H. pylori”.
On to `CC/C=C\C/C=C\C/C=C\C/C=C\C/C=C\C/C=C\CCC(=O)O` [DHA, docosahexaenoic acid], for which, in series [2], the “bacterial viability of strain 26695 as compared to SS1” value is 100 times. In addition, the “doses giving bactericidal and bacteriostatic effects, lower than the prior art doses” value in series [3] is 5 to 10 times. The “dose that showed a higher inhibitory role in gastric colonization” value with H. pylori strain SS1 (25, 50 and 100 μM tested in drinking water) is 50 µM. The figures for the stomach colonization in the series on H. pylori strain SS1 (after 1 month of infection) and with H. pylori strain SS1 (after the third month) were 0.47×10^5 CFU/g gastric tissue and 0.62×10^5 CFU/g gastric tissue, respectively. Besides, the “mice in which colonization by H. pylori occurred” value was found to be 20% in the series on H. pylori strain SS1 (first month of infection) and 50% in the series on H. pylori strain SS1 (third month). Besides, the “inhibition of H. pylori growth (gastric colonization)” value is on record as “about 100 fold” in the series with H. pylori strain SS1 (nine months of infection); “approximately 10 fold” in the series on H. pylori strain SS1 (one, three and six months of infection). Moreover, in the series on H. pylori strain SS1 (DHA 50 μM in mice drinking water, 0.068 mg per mouse per day), the toxicity entry is given as “no toxicity concerns”. The compound also yielded a lower gastric colonization in the series with H. pylori SS1 strain of 10 times.
Consider `CC/C=C\C/C=C\C/C=C\C/C=C\C/C=C\CCCC(=O)O` [EPA], for which the “concentration that could inhibit the growth of H. Pylori” value in the series with H. pylori [4] is 0.2 mM.
Turning to `CC/C=C\C/C=C\C/C=C\CCCCCCCC(=O)O` [linolenic acid ω-3C18:3], the “concentration that could inhibit the growth of H. Pylori” value in the series with H. pylori [4] is 0.2 mM.
On to `CCCCC/C=C\C/C=C\C/C=C\CCCCC(=O)O` [ω-6C18:3, linolenic acid ω-6C18:3], for which the “concentration that could inhibit the growth of H. Pylori” value in the series on H. pylori [4] is 0.2 mM.
